Laboratory results published in EP0127529A2, “Aminocyclic N-oxide derivatives, process for their preparation and their therapeutical use” (DELALANDE S.A., priority 1983, dated 1984).

Columns and labels:
souris = experiment: Acute toxicity in mice, intraperitoneal route; type: in vivo; settings: i.p.
Text: La toxicité aiguë des composés selon l'invention a également été étudiée chez la souris par voie intrapéritonéale. Le tableau II ci-après donne à titre d'exemple non limitatif les résultats obtenus avec certains des composés selon l'invention.

[1] = tested on: redressements à l'apomorphine; experiment: Antagonism of apomorphine-induced rearing (climbing) in mice; type: in vivo; settings: souris, i.p.
Text: Ces propriétés psychotropes ont été mises en évidence chez la souris, notamment par le test de l'antagonisme aux redressements à l'apomorphine réalisé d'après le protocole décrit par G. GOURET et Coll. dans J. Pharmacol. (Paris) (^1973), ^4, 341.

Compound	Toxicité (souris) DL 50 (souris) [mg/kg/i.p.]	Antagonisme aux redressements à l'apomorphine DE 50 [1]
COc1cccc(C(=O)NC2CC3CCC(C2)[N+]3([O-])Cc2ccccc2)c1OC (stereo not shown) [compound 1, N-oxyde axial du (diméthoxy-2,3) benzoylamino-3 N-benzyl aza-8 bicyclo [3.2,1] octane]	> 400	2,2 mg/kg/i.p.
COc1cccc(C(=O)NC2CC3CCC(C2)[N+]3([O-])Cc2ccccc2)c1OC (stereo not shown) [compound 2, N-oxyde équatorial du (diméthoxy-2,3) benzoylamino-3 N-benzyl aza-8 bicyclo[3.2.1] octane]	400	0,27 mg/kg/i.p.
